≈ marks a conversion by molar mass, not a printed value. Where “and” joins values, the source holds several entries; their conditions need not be identical. Equal entries are not always repeated. Where two headings read alike, the source gives them in different places.
Tests used:
[1] = system: Mab complex; assay: MIC against Mab complex (summary over the 3 subspecies); type: cell-based, Mycobacterium abscessus; details: Mycobacteroides abscessus; range over subspecies
[2] = system: Mab bolletii CCUG 50184-T; assay: MIC against Mab bolletii CCUG 50184-T; type: cell-based, Mycobacterium abscessus subsp. bolletii; details: Mycobacteroides abscessus; for MIC50: CCUG50184, 72 h, 3 days
[3] = system: Mab massiliense CCUG 48898-T; assay: MIC against Mab massiliense CCUG 48898-T; type: cell-based, Mycobacterium abscessus subsp. massiliense; details: Mycobacteroides abscessus; for MIC50: CCUG48898, 72 h, 3 days
[4] = system: M. bovis BCG; type: cell-based, Mycobacterium bovis BCG; details: 2XMIC90BCG (1.1 mM, 500 μg/mL)
[5] = system: Mab abscessus ATCC 19977; assay: MIC against Mab abscessus ATCC 19977; type: cell-based, Mycobacterium abscessus subsp. abscessus; details: Mycobacteroides abscessus; for MIC50: ATCC19977, 72 h, 3 days
[6] = system: M. bovis BCG; type: cell-based, Mycobacterium bovis BCG; details: 2x MIC90BCG, 6 h time point, cultures still viable
[7] = system: cat papillary muscle; details: cited from earlier work
[8] = system: M. bovis BCG; assay: microbe, parasite or virus in culture; type: cell-based, Mycobacterium bovis BCG; details: Mycobacterium tuberculosis variant bovis BCG, BCG
[9] = system: HepG2; assay: Cytotoxicity in HepG2 cells; type: cell-based, human; details: Homo sapiens, HepG2; 48 h, growth suppressed by 50% vs untreated
Description: (§1) To each well in a 96-well plate, 50,000 cells in 100 μL media were seeded. Vero E6 and HepG2 cells were incubated overnight in DMEM for cell adherence at 37°C and 5% CO2. The media was removed from the wells and 100 μL solution made up of fresh DMEM media (99 μL) and the test compound (1 μL from a DMSO stock solution that was […] more concentrated than the final concentration in the well) was then added to each well. DMSO content of each well was consistently kept at 0.5 %v/v. Treated plates were incubated for 48 h (5% CO2, 37°C), after which 10 μL of Celltitre 96 Aqueous One Solution was added to each well, without removal of media, and incubated for a further 3 h. Subsequently, absorbance readings were taken at 490 nm on a Tecan GENios Microplate Reader.
(§2) Cell viability was determined from the expression: Cellviability(%)={[Absorbance(cells+cpd)−Absorbance(cpd)]/[Absorbance(cells+vc)−Absorbance(vc)]}×100% where Absorbance (cells + cpd) = absorbance of wells containing cells and test compound in vehicle (media +0.5% DMSO); Absorbance (cpd) = absorbance of wells containing test compound in vehicle without cells (compound control); Absorbance (cells + vc) = absorbance of wells containing cells in vehicle (vc) only (untreated cells); Absorbance (vc) = absorbance of wells containing vehicle without cells (vehicle control). The percentage viability readings were plotted against log(concentration) on GraphPad Prism (Version 7.0, San Diego, CA) to give a sigmoidal curve, from which IC50, defined as the concentration of the compound that reduced cell viability by 50%, was obtained. At least 3 separate determinations were carried out.

[10] = system: Mtb H37Rv; assay: MIC by broth microdilution against Mtb H37Rv; type: cell-based, Mycobacterium tuberculosis; details: Mycobacterium tuberculosis, H37RV
[11] = system: nonreplicating M. bovis BCG; type: cell-based, Mycobacterium bovis BCG; details: 4x MIC90BCG, 5 days, Wayne model
[12] = system: Vero E6; assay: Cytotoxicity in Vero E6 cells; type: cell-based, African green monkey; details: Chlorocebus sabaeus, Vero C1008, 48 h, growth suppressed by 50% vs untreated
Description: as §1, §2

[13] = system: mycobacterial growth; details: cited from earlier work
[14] = 7H9 medium (first value of cell)
[15] = CA-MHB medium (second value of cell)

Work on `COc1ccc(CCN(C)CCCC(C#N)(c2ccc(OC)c(OC)c2)C(C)C)cc1OC` (stereo not drawn) [VP, verapamil, reference compound] yielded an MIC50 [1] of 500 to 564 µg/mL (≈ 1100 to 1240 µM), an MIC90 ([2]; CCUG50184, 7H9 broth (first value)) of 2200 µM (≈ 1000 µg/mL) and an MIC50 [2, 14] of 1450 µM (≈ 659 µg/mL). The MIC50 [2, 15] was 1250 µM (≈ 568 µg/mL), the MIC90 ([2]; CCUG50184, camH broth (second value)) was > 2500 µM and the MIC90 ([3]; CCUG48898, 7H9 broth (first value)) was 2250 µM (≈ 1020 µg/mL). The MIC50 [3, 14] was 1100 µM (≈ 500 µg/mL), the MIC50 [3, 15] was 1150 µM (≈ 523 µg/mL) and the MIC90 ([3]; CCUG48898, camH broth (second value)) was > 2500 µM. The “time to reduce the CFU count to the detection limit” value [4] was 14 days, the MIC90 ([5]; ATCC19977, 7H9 broth (first value), read-out: MIC90 Mab abscessus ATCC 19977) was 2400 µM (≈ 1090 µg/mL) and the MIC50 [5, 14] was 1290 µM (≈ 586 µg/mL). The MIC50 [5, 15] was 1200 µM (≈ 546 µg/mL), the MIC90 ([5]; ATCC19977, Mab abscessus, read-out: MIC90 abscessus) was 2400 µM and 1100 µg/mL and the MIC90 ([5]; ATCC19977, camH broth (second value), read-out: MIC90 Mab abscessus ATCC 19977) was > 2500 µM. The membrane depolarization [6] was “depolarization was evident”, the “ED50 (concentration to reduce maximal contractility of the papillary muscle by 50%)” value [7] was 3.5 µM and the MIC50 ([8]; 120 h, read-out: MIC50 BCG With Glycerol, 7H9 broth with glycerol, 5 days) was 210 µM. The MIC50 ([8]; 120 h, read-out: MIC50 BCG Without Glycerol, 7H9 broth without glycerol, 5 days) was 450 µM, the MIC50 ([8]; M. bovis BCG, broth dilution, growth reduced by 50% vs untreated) was 210 µM and the MIC90 ([8]; M. bovis BCG, broth dilution, growth reduced by 90% vs untreated) was 550 µM. The MIC50 ([8]; read-out: MIC50 BCG, 7H9 with glycerol) was 96 µg/mL, the MIC50 ([8]; read-out: MIC50 BCG, 7H9 without glycerol) was 205 µg/mL and the MIC90 ([8]; read-out: MIC90 (Table S1), M. bovis BCG, broth dilution) was 550 µM. The MIC90 ([8]; read-out: MIC90 BCG, M. bovis BCG) was 250 µg/mL, the IC50 [9] was 504 µM and the MIC50 ([10]; 120 h, read-out: MIC50 Mtb H37Rv) was 241 µM. It also gave an MIC90 ([10]; 120 h, second value of cell MIC50/MIC90, incubation 5 days, read-out: MIC90 Mtb H37Rv) of 540 µM, an MIC50 ([10]; read-out: MIC50 Mtb) of 110 µg/mL and an MIC90 ([10]; read-out: MIC90 Mtb) of 246 µg/mL. The “kill of hypoxic M. bovis BCG” value [11] was 10^2 fold, the IC50 [12] was 543 µM and the “concentration to inhibit mycobacterial growth” value [13] was ~500 μM and ~227 μg/mL.

— article PMC12281142, “A potent phenylalkylamine disrupts mycobacterial membrane bioenergetics and augments bactericidal activity of bedaquiline” (iScience, 2025)
